Measurements: PMC4274986 (Journal of Molecular Recognition, 2014)

Test system: Streptavidin-R-phycoerythrin (SAPE)
Assay type: binding

## FTSSPSKHPQVEAGV [R441]
  SAPE binding median fluorescence vs unlabeled controls: comparable to the unlabeled controls
